Holding throughout (set-up): species or system P. gingivalis
Assay [1] deals with binding of rHA2 or the gingipains (RgpA, Kgp) to hemoglobin (Porphyromonas gingivalis, UniProt Q51816, A1188S/A1219P/Q1165E). Description: solution-phase competition assay, hemoglobin-coated wells (rHA2 or gingipains). The note with it: preincubated 1 hr, read-out: IC50, inhibition of binding to hemoglobin. The procedure: (§1) Data are representative of two separate experiments. The absence of contaminating protein in a 90 μg protoporphyrin IX preparation was verified by SDS-PAGE and by Coomassie dye binding.
(§2) The IC50s for ligand binding in solution phase competition assays were determined. […] Hemoglobin was used as it was considered to represent the dominant form of porphyrin presentation in the pathological environment of chronic periodontitis.

Assay [2] has as its target binding of rHA2 or the gingipains (RgpA, Kgp) to hemin (Porphyromonas gingivalis, UniProt Q51816, A1188S/A1219P/Q1165E). Briefly: solution-phase competition assay, hemin-coated wells. The note with it: read-out: IC50, inhibition of binding to hemin. The protocol: as §1, §2
In a further assay the test system is rHA2. Briefly: directed porphyrin binding: porphyrins linked by carbodiimide to ethylene diamine-coated wells. The note with it: propionic acid groups linked to fixed amines, compared with non-derivatized porphyrin; 125 ng/ml rHA2. The procedure:
Microtiter wells were coated with 100 mM ethylene diamine (pH 4.7) then incubated with 90 μg/ml hemin, protoporphyrin IX, or hematoporphyrin overnight in 50% dimethyl formamide in the presence (+) or absence (−) of 10 mM carbodiimide. Wells were washed 4 times with water then the amount of porphyrin bound to the wells was determined by absorbance at 414 nm (striped bars). […] Error bars represent standard deviation of absorbance measurements. Diagrams of chemical structures for hemin, protoporphyrin IX, and hematoporphyrin are presented adjacent to corresponding data.
The inventors reasoned, therefore, that blocking access to the acidic region of protoporphyrin molecules would have an effect on rHA2-binding and allow more specific characterization of binding between the HA2 domain and the porphyrin ring. Modifying the ligand binding assay system used above, surfaces were first coated with ethylene diamine to provide fixed, free, primary amines for carbodiimide linkage of carboxylic acid groups.

Broadly, the IC50 is the concentration that gives 50% inhibition. As to `C=CC1=C(C)c2cc3[nH]c(cc4nc(cc5[nH]c(cc1n2)c(C)c5CCC(=O)O)C(CCC(=O)O)=C4C)c(C)c3C=C` [protoporphyrin IX], the IC50 in assay [1] was 10 ± 2 µM; in assay [2] it was around 2.5 µM. For hemin, in the assay with rHA2, the “rHA2-binding to carbodiimide-treated porphyrin” value was “almost eliminated”.

The values are drawn from patent publication US7319086B1, “Method of prophylaxis and treatment and agents useful for same” (priority 1999, dated 2008).
